Earlier results on two molecules are cited in US11883378B2, “Hydrogel formulations and methods and devices for focal administration of the same” (Pykus Therapeutics, Inc., priority 2021, dated 2024).

In data set [1] the test system is VEGF.

Values after ≈ are worked out from the molar mass of the structure shown.

Sequence of VEGF (P15692 207-311 limits assumed): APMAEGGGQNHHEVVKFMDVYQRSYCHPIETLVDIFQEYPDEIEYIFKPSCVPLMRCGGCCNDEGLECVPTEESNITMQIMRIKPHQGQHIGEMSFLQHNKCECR

As for `C=CC[C@@H]1/C=C(\C)C[C@H](C)C[C@H](OC)[C@H]2O[C@@](O)(C(=O)C(=O)N3CCCC[C@H]3C(=O)O[C@H](/C(C)=C/[C@@H]3CC[C@@H](O)[C@H](OC)C3)[C@H](C)[C@@H](O)CC1=O)[C@H](C)C[C@@H]2OC` [Tacrolimus], the solubility in water is ~1 µg/mL (≈ 1.24 µM).
In the case of “Bevacizumab: anti-VEGF monoclonal antibody (large protein) with a molecular weight of ~150 kD”, the “tolerability of intravitreal injection” value in data set [1] (dose of 1.25 mg) was “well tolerated”. Also, in data set [1] (maintained by monthly repetitive intravitreal injections), the “effective dose in the vitreous” value was ~1 µg/mL.
